Results reported in article PMC9668969 (Nature Communications, 2022).

System: WT ELIC
Test: Tryptophan fluorescence emission spectrum with and without agonist
Assay type: biochemical, Erwinia chrysanthemi
Details: WT 30 mM Cys
Experimental: To measure the tryptophan (Trp) fluorescence emission of ELIC, WT or W206F ELIC was diluted to 3 ml (0.02 mg/ml) and an emission spectrum was collected in a quartz fluorescence cell using a Fluoromax Plus Spectrofluorometer (Horiba Scientific). […] Trp fluorescence measurements with rapid mixing of agonist was carried out using the SX20 stopped-flow spectrofluorometer, outfitted with a 295 nm LED excitation source. Purified ELIC was diluted to 0.1 mg/ml in Trp Stopped-flow Buffer A (10 mM Tris pH 7.5, 100 mM NaCl, 0.05% DDM). A single mixing experiment was performed by mixing ELIC with equal volumes of Buffer A + propylamine. Propylamine was prepared at varying concentrations at 2x the final concentration. The instrument dead time was ~1 ms, enabling capture of most of the time course of change in Trp fluorescence. The time course of decrease in Trp fluorescence after rapid mixing with propylamine was fit to a single exponential to obtain a time constant for the rate of decrease and a measure of the extent of decrease. All replicates were taken from distinct samples.

Compound: NCCS [cysteamine]
- Tryptophan fluorescence emission intensity (wavelength 320): 804590
- Tryptophan fluorescence emission intensity (wavelength 321): 840110
- Tryptophan fluorescence emission intensity (wavelength 322): 860020
- Tryptophan fluorescence emission intensity (wavelength 323): 881470
- Tryptophan fluorescence emission intensity (wavelength 324): 898170
- Tryptophan fluorescence emission intensity (wavelength 325): 925090
- Tryptophan fluorescence emission intensity (wavelength 327): 958460
- Tryptophan fluorescence emission intensity (wavelength 328): 977560
- Tryptophan fluorescence emission intensity (wavelength 329): 1001430
- Tryptophan fluorescence emission intensity (wavelength 330): 1017700
- Tryptophan fluorescence emission intensity (wavelength 331): 1038960
- Tryptophan fluorescence emission intensity (wavelength 332): 1051130
- Tryptophan fluorescence emission intensity (wavelength 333): 1064180
- Tryptophan fluorescence emission intensity (wavelength 334): 1076000
- Tryptophan fluorescence emission intensity (wavelength 335): 1094750
- Tryptophan fluorescence emission intensity (wavelength 336): 1105230
- Tryptophan fluorescence emission intensity (wavelength 337): 1102570
- Tryptophan fluorescence emission intensity (wavelength 338): 1110270
- Tryptophan fluorescence emission intensity (wavelength 339): 1107370
- Tryptophan fluorescence emission intensity (wavelength 340): 1100850
- Tryptophan fluorescence emission intensity (wavelength 341): 1109610
- Tryptophan fluorescence emission intensity (wavelength 342): 1105480
- Tryptophan fluorescence emission intensity (wavelength 343): 1098150
- Tryptophan fluorescence emission intensity (wavelength 344): 1095000
- Tryptophan fluorescence emission intensity (wavelength 345): 1092160
- Tryptophan fluorescence emission intensity (wavelength 346): 1088360
- Tryptophan fluorescence emission intensity (wavelength 347): 1077030
- Tryptophan fluorescence emission intensity (wavelength 348): 1068840
- Tryptophan fluorescence emission intensity (wavelength 349): 1066310
- Tryptophan fluorescence emission intensity (wavelength 350): 1055290
- Tryptophan fluorescence emission intensity (wavelength 351): 1041270
- Tryptophan fluorescence emission intensity (wavelength 352): 1036270
- Tryptophan fluorescence emission intensity (wavelength 353): 1015310
- Tryptophan fluorescence emission intensity (wavelength 354): 1003150
- Tryptophan fluorescence emission intensity (wavelength 355): 990040
- Tryptophan fluorescence emission intensity (wavelength 356): 980580
- Tryptophan fluorescence emission intensity (wavelength 357): 950350
- Tryptophan fluorescence emission intensity (wavelength 358): 943630
- Tryptophan fluorescence emission intensity (wavelength 359): 918190
- Tryptophan fluorescence emission intensity (wavelength 360): 914380
- Tryptophan fluorescence emission intensity (wavelength 361): 899440
- Tryptophan fluorescence emission intensity (wavelength 362): 877520
- Tryptophan fluorescence emission intensity (wavelength 363): 850800
- Tryptophan fluorescence emission intensity (wavelength 364): 821470
- Tryptophan fluorescence emission intensity (wavelength 365): 795670
- Tryptophan fluorescence emission intensity (wavelength 366): 776390
- Tryptophan fluorescence emission intensity (wavelength 367): 752920
- Tryptophan fluorescence emission intensity (wavelength 368): 732340
- Tryptophan fluorescence emission intensity (wavelength 369): 720880
- Tryptophan fluorescence emission intensity (wavelength 370): 691880
- Tryptophan fluorescence emission intensity (wavelength 371): 677380
- Tryptophan fluorescence emission intensity (wavelength 372): 661530
- Tryptophan fluorescence emission intensity (wavelength 373): 643370
- Tryptophan fluorescence emission intensity (wavelength 374): 622610
- Tryptophan fluorescence emission intensity (wavelength 375): 605580
- Tryptophan fluorescence emission intensity (wavelength 376): 584360
- Tryptophan fluorescence emission intensity (wavelength 377): 567600
- Tryptophan fluorescence emission intensity (wavelength 378): 558770
- Tryptophan fluorescence emission intensity (wavelength 379): 531360
- Tryptophan fluorescence emission intensity (wavelength 380): 517880
- Tryptophan fluorescence emission intensity (wavelength 381): 499820
- Tryptophan fluorescence emission intensity (wavelength 382): 482620
- Tryptophan fluorescence emission intensity (wavelength 383): 465090
- Tryptophan fluorescence emission intensity (wavelength 384): 451150
- Tryptophan fluorescence emission intensity (wavelength 385): 428430
- Tryptophan fluorescence emission intensity (wavelength 386): 420060
- Tryptophan fluorescence emission intensity (wavelength 387): 400770
- Tryptophan fluorescence emission intensity (wavelength 388): 385350
- Tryptophan fluorescence emission intensity (wavelength 389): 381600
- Tryptophan fluorescence emission intensity (wavelength 390): 360170
- Tryptophan fluorescence emission intensity (wavelength 391): 346400
- Tryptophan fluorescence emission intensity (wavelength 392): 340740
- Tryptophan fluorescence emission intensity (wavelength 393): 327660
- Tryptophan fluorescence emission intensity (wavelength 394): 316470
- Tryptophan fluorescence emission intensity (wavelength 395): 301980
- Tryptophan fluorescence emission intensity (wavelength 396): 291020
- Tryptophan fluorescence emission intensity (wavelength 397): 277640
- Tryptophan fluorescence emission intensity (wavelength 398): 265940
- Tryptophan fluorescence emission intensity (wavelength 399): 253020
- Tryptophan fluorescence emission intensity (wavelength 400): 247580
- Tryptophan fluorescence emission intensity (wavelength 401): 237600
- Tryptophan fluorescence emission intensity (wavelength 402): 233050
- Tryptophan fluorescence emission intensity (wavelength 403): 223960
- Tryptophan fluorescence emission intensity (wavelength 404): 210930
- Tryptophan fluorescence emission intensity (wavelength 405): 205250
- Tryptophan fluorescence emission intensity (wavelength 406): 197950
- Tryptophan fluorescence emission intensity (wavelength 407): 191160
- Tryptophan fluorescence emission intensity (wavelength 408): 187280
- Tryptophan fluorescence emission intensity (wavelength 409): 181840
- Tryptophan fluorescence emission intensity (wavelength 410): 170220
- Tryptophan fluorescence emission intensity (wavelength 411): 167400
- Tryptophan fluorescence emission intensity (wavelength 412): 162070
- Tryptophan fluorescence emission intensity (wavelength 413): 154720
- Tryptophan fluorescence emission intensity (wavelength 414): 150730
- Tryptophan fluorescence emission intensity (wavelength 415): 146270
- Tryptophan fluorescence emission intensity (wavelength 416): 141050
- Tryptophan fluorescence emission intensity (wavelength 417): 136250
- Tryptophan fluorescence emission intensity (wavelength 418): 131260
- Tryptophan fluorescence emission intensity (wavelength 419): 129580
- Tryptophan fluorescence emission intensity (wavelength 420): 125310
